Several values for one entry are separate records, joined by “and”; a condition that tells them apart may be missing. Equal entries are not always repeated.
Experiments:
human DGKα = human DGKα (Homo sapiens (Human), UniProt P23743); test: DGKα LIPGLO assay (extruded liposome substrate); format: biochemical
Outline: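 Human full-length DGKα, His-tagged and produced in Sf9 cells, assayed at 20 nM (4× stock) on extruded liposomes of PS, 0.25 mM DAG and 2.75 mM PC, preincubated 10 min. Reaction started with 300 μM ATP (stock) and ran 1 h in MOPS pH 7.5/MgCl2/CaCl2/DTT buffer.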

naïve human CD8 T cells = test: cells; conditions: Homo sapiens, T-cell, read-out: HuCD8 INFG Normalized EC50, anti-CD3 plus anti-CD28 as baseline; 3 μM Example 40 co-stimulation as 100% activation
Experimental: Frozen naïve human CD8 T cells were thawed in ATM-V media, incubated for 2 h in 37° C., and counted. The 384-well tissue culture plate was coated overnight at 4° C. with 20 μl anti-human CD3 at 0.05 μg/mL in PBS, which was removed off the plate before 40,000 cells per 40 microliters CD8 T cells with 0.1 μg/mL soluble anti-human CD28 were added to each well. The compounds were transferred using an Echo liquid handler to the cell plate immediately after the cells were plated. After 20 h incubation at 37° C. incubator, 3 microliters per well supernatants transferred into a new 384-well white assay plate for cytokine measurement.
Interferon-γ (IFN-γ) was quantitated using the AlphaLISA kit (Cat #AL217) as described by the manufacturer manual (Perkin Elmer). The counts from each well were converted to IFN-γ concentration […].

human DGKζ = human DGKζ (Homo sapiens (Human), UniProt Q13574); test: DGKζ LIPGLO assay (extruded liposome substrate); format: biochemical; conditions: extruded liposome substrate; read-out: DGKζ LIPGLO IC50
Outline: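 Sf9-derived DGKζ was premixed 10 min with PC/DAG/PS liposomes (100 nm extruded) in MOPS pH 7.5 buffer containing NaCl, MgCl2, CaCl2 and DTT.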

Chain of human DGKζ (Q13574 other isoform, or with tags, fused parts or gaps): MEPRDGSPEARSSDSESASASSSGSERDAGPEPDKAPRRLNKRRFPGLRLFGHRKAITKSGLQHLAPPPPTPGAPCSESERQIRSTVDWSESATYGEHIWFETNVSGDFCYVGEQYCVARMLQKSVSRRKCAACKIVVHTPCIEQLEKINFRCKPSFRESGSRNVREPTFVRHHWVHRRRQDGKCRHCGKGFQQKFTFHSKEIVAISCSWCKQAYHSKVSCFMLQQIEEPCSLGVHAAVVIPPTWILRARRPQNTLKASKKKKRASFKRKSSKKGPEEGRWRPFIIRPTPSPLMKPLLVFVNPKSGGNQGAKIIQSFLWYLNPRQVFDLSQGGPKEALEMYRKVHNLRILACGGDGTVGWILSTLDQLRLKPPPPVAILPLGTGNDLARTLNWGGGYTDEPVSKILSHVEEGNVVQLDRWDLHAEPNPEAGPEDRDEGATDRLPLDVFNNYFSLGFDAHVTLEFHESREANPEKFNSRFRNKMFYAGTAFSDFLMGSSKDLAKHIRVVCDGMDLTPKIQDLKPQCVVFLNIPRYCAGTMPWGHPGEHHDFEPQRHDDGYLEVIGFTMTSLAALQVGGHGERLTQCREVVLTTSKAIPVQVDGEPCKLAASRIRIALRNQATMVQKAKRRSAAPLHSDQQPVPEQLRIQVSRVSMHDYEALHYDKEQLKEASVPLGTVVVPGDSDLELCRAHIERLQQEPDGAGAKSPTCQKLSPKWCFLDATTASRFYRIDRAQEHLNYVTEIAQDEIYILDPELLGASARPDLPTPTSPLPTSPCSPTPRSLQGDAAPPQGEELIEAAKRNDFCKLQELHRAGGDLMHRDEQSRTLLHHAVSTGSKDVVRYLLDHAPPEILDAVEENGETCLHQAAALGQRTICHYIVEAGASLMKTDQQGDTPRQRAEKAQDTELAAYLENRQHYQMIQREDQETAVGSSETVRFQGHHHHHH
Chain of human DGKα (P23743 other isoform, or with tags, fused parts or gaps): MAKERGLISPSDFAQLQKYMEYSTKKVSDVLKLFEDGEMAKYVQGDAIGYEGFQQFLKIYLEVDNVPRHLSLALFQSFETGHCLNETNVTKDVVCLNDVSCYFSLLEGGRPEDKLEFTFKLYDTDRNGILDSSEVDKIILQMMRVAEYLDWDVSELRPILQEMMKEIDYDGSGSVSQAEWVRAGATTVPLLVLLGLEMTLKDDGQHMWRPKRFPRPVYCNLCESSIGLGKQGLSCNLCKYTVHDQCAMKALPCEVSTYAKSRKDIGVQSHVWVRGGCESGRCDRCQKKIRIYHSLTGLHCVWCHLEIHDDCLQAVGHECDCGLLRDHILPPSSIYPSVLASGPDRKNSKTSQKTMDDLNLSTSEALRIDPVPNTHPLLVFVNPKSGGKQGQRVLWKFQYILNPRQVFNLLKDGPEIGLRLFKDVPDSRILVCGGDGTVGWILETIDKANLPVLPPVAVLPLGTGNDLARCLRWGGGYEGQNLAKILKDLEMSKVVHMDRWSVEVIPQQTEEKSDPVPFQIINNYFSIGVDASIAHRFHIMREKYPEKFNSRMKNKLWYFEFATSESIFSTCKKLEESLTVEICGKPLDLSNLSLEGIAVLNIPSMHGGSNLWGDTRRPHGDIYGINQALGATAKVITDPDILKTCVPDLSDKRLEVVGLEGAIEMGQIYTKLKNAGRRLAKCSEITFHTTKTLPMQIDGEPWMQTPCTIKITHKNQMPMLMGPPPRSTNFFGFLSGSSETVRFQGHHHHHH

Structure (SMILES)	IC50 (human DGKα) [µM]	EC50 (naïve human CD8 T cells) [µM]	IC50 (human DGKζ)
COc1ccc2c(n1)c(N1CCN(C(c3ccc(Cl)cc3)c3ccc(Cl)cc3)CC1)c(C#N)c(=O)n2C [Example 395, 4-{4-[bis(4-chlorophenyl)methyl]piperazin-1-yl}-6-methoxy-1-methy-2-oxo-1,2-dihydro-1,5-naphthyridine-3-carbonitrile]	14	0.09	3 µM
Cn1c(=O)c(C#N)c(N2CCN(C(c3ccccc3)c3ccc(F)cc3)CC2)c2nc(Br)ccc21 (racemic) [Example 430, 6-bromo-4-{4-[(4-fluorophenyl)(phenyl)methyl]piperazin-1-yl}-1-methyl-2-oxo-1,2-dihydro-1,5-naphthyridine-3-carbonitrile]	1.9	0.3	3 µM
COc1cc(F)ccc1C(c1ccc(F)cc1OC)N1CCN(c2c(C#N)c(=O)n(C)c3ccc(C)nc23)CC1 [Example 251, 4-{4-[bis(4-fluoro-2-methoxyphenyl)methyl]piperazin-1-yl}-1,6-dimethyl-2-oxo-1,2-dihydro-1,5-naphthyridine-3-carbonitrile]	> 240	0.58	9 µM
Cn1c(=O)c(C#N)c(N2CCN([C@@H](c3ccccc3)c3ccc(Cl)cc3)CC2)c2nc(C#N)ccc21 [Example 414, 8-{4-[(S)-(4-chlorophenyl)(phenyl)methyl]piperazin-1-yl}-5-methyl-6-oxo-5,6-dihydro-1,5-naphthyridine-2,7-dicarbonitrile]	9	0.16	1.5 µM
COc1ccc2c(n1)c(N1CCN(C(c3ccc(F)cc3OC)c3ccc(F)cc3OC)CC1)c(C#N)c(=O)n2C [Example 402, 4-{4-[bis(4-fluoro-2-methoxyphenyl)methyl]piperazin-1-yl}-6-methoxy-1-methyl-2-oxo-1,2-dihydro-1,5-naphthyridine-3-carbonitrile]	160	1.78	3.5 µM
COc1cccnc1C(c1ccc(F)cc1)N1CCN(c2c(C#N)c(=O)n(C)c3ccc(C#N)nc23)CC1 (centres unmarked) [Example 410, 8-{4-[(4-fluorophenyl)(3-methoxypyridin-2-yl)methyl]piperazin-1-yl}-5-methyl-6-oxo-5,6-dihydro-1,5-naphthyridine-2,7-dicarbonitrile]	5.4	0.09	2.2 µM
CCC(c1ccc(F)cc1)N1CCN(c2c(C#N)c(=O)n(C)c3ccc(C)nc23)CC1 (racemic) [Example 398, 4-{4-[1-(4-fluorophenyl)propyl]piperazin-1-yl}-1,6-dimethyl-2-oxo-1,2-dihydro-1,5-naphthyridine-3-carbonitrile]		1.21	> 240 µM and 49 µM
COc1ccc2c(n1)c(N1CCN(C(c3ccc(F)cc3)c3ccccn3)CC1)c(C#N)c(=O)n2C (centres unmarked) [Example 403, 4-{4-[(4-fluorophenyl)(pyridin-2-yl)methyl]piperazin-1-yl}-6-methoxy-1-methyl-2-oxo-1,2-dihydro-1,5-naphthyridine-3-carbonitrile]	26	1.49	5.7 µM
COc1ccc2c(n1)c(N1CCN(C(c3ccc(F)cc3)c3ccc(F)cc3OC)CC1)c(C#N)c(=O)n2C (single isomer, unassigned) [Example 413, 4-{4-[(4-fluoro-2-methoxyphenyl)(4-fluorophenyl)methyl]piperazin-1-yl}-6-methoxy-1-methyl-2-oxo-1,2-dihydro-1,5-naphthyridine-3-carbonitrile]	3.3	0.04	0.97 µM
Cn1c(=O)cc(N2CCN(C(c3ccc(F)cc3)c3ccc(F)cc3)CC2)c2nc(C#N)ccc21 [Example 432, 8-{4-[bis(4-fluorophenyl)methyl]piperazin-1-yl}-5-methyl-6-oxo-5,6-dihydro-1,5-naphthyridine-2-carbonitrile]	> 240	0.06	5.4 µM
Cn1c(=O)c(C#N)c(N2CCN(C(c3ccccc3)c3ccc(Cl)cc3)CC2)c2nc(Br)ccc21 (racemic) [Example 429, 6-bromo-4-{4-[(4-chlorophenyl)(phenyl)methyl]piperazin-1-yl}-1-methyl-2-oxo-1,2-dihydro-1,5-naphthyridine-3-carbonitrile]	1.8	0.08	9.4 µM
Cn1c(=O)c(C#N)c(N2CCN(C(c3ccccc3)c3ccc(F)cc3)CC2)c2nc(C#N)ccc21 (centres unmarked) [Example 411, 8-{4-[(4-fluorophenyl)(phenyl)methyl]piperazin-1-yl}-5-methyl-6-oxo-5,6-dihydro-1,5-naphthyridine-2,7-dicarbonitrile]	4.9	0.02	1.4 µM
Cc1ccc2c(n1)c(N1CCN(C(c3ccc(F)cc3)c3ccccn3)CC1)c(C#N)c(=O)n2C (centres unmarked) [Example 256, 4-{4-[(4-fluorophenyl)(pyridin-2-yl)methyl]piperazin-1-yl}-1,6-dimethyl-2-oxo-1,2-dihydro-1,5-naphthyridine-3-carbonitrile]	2.7	0.24	10 µM
COc1ccc2c(n1)c(N1CCN(C(c3ccc(F)cc3)c3cccnc3OC)CC1)c(C#N)c(=O)n2C (centres unmarked) [Example 396, 4-{4-[(4-fluorophenyl)(2-methoxypyridin-3-yl)methyl]piperazin-1-yl}-6-methoxy-1-methyl-2-oxo-1,2-dihydro-1,5-naphthyridine-3-carbonitrile]	21	2.66	5.8 µM
COCCC(C)N1CCN(c2c(C#N)c(=O)n(C)c3ccc(C)nc23)CC1 (centres unmarked) [Example 252, 4-[4-(4-methoxybutan-2-yl)piperazin-1-yl]-1,6-dimethyl-2-oxo-1,2-dihydro-1,5-naphthyridine-3-carbonitrile]	> 240	10	200 µM
COc1cc(C)ccc1C(c1ccc(F)cc1)N1CCN(c2c([N+](=O)[O-])c(=O)n(C)c3ccc(C#N)nc23)CC1 (centres unmarked) [Example 416, 8-{4-[(4-fluorophenyl)(2-methoxy-4-methylphenyl)methyl]piperazin-1-yl}-5-methyl-7-nitro-6-oxo-5,6-dihydro-1,5-naphthyridine-2-carbonitrile]	4.8	0.03	0.91 µM
COc1ccc2c(n1)c(N1CCN(C(c3ncccn3)c3ccc(F)cc3OC)CC1)c(C#N)c(=O)n2C (centres unmarked) [Example 401, 4-{4-[(4-fluoro-2-methoxyphenyl)(pyrimidin-2-yl)methyl]piperazin-1-yl}-6-methoxy-1-methyl-2-oxo-1,2-dihydro-1,5-naphthyridine-3-carbonitrile]	81	10	7.6 µM
Cn1c(=O)c(C#N)c(N2CCN(C(c3ccc(F)cc3)c3ccccn3)CC2)c2nc(C#N)ccc21 (centres unmarked) [Example 400, 8-{4-[(4-fluorophenyl)(pyridin-2-yl)methyl]piperazin-1-yl}-5-methyl-6-oxo-5,6-dihydro-1,5-naphthyridine-2,7-dicarbonitrile]	5.4	0.05	2.1 µM
Cn1c(=O)c(C#N)c(N2CCN(C(c3ccc(Cl)cc3)c3ccc(Cl)cc3)CC2)c2nc(C#N)ccc21 [Example 394, 8-{4-[bis(4-chlorophenyl)methyl]piperazin-1-yl}-5-methyl-6-oxo-5,6-dihydro-1,5-naphthyridine-2,7-dicarbonitrile]	3.9	0.01	1.2 µM
Cn1c(=O)c(C#N)c(N2CCN(C(c3ccc(Cl)cc3)c3ccc(Cl)cc3)CC2)c2nc(Br)ccc21 [Example 393, 4-{4-[bis(4-chlorophenyl)methyl]piperazin-1-yl}-6-bromo-1-methyl-2-oxo-1,2-dihydro-1,5-naphthyridine-3-carbonitrile]	9	0.17	> 240 µM
Cc1ccc2c(n1)c(N1CCN(C3CCOc4ccccc43)CC1)c(C#N)c(=O)n2C (centres unmarked) [Example 253, 4-[4-(3,4-dihydro-2H-1-benzopyran-4-yl)piperazin-1-yl]-1,6-dimethyl-2-oxo-1,2-dihydro-1,5-naphthyridine-3-carbonitrile]	40	2.51	7.4 µM
COc1ccc2c(n1)c(N1CCN(C(c3ccc(F)cc3)c3ncccc3OC)CC1)c(C#N)c(=O)n2C (centres unmarked) [Example 397, 4-{4-[(4-fluorophenyl)(3-methoxypyridin-2-yl)methyl]piperazin-1-yl}-6-methoxy-1-methyl-2-oxo-1,2-dihydro-1,5-naphthyridine-3-carbonitrile]	16	4.47	13 µM
